Data reported in the NIST ThermoML archive (doi:10.1016/j.jct.2006.11.001).

Tests used:
[1] = molar heat capacity at constant pressure; details: Liquid, thermal relaxation method
[2] = molar heat capacity at constant pressure; xn = mol fraction of the nth substance listed; details: Liquid, thermal relaxation method

CO [methanol]
molar heat capacity at constant pressure [J/K/mol], [1]
Details	100 kPa	1000 kPa	5000 kPa	10000 kPa	15000 kPa
280 K	77.22	74.02	73.7	–	–
320 K	87.15	85.87	84.27	–	–
360 K	–	97.41	94.2	94.52	97.09

CO [methanol] + O
molar heat capacity at constant pressure [J/K/mol], [2]
Details	x1 = 0.0496	x1 = 0.101	x1 = 0.1936	x1 = 0.2606	x1 = 0.4949	x1 = 0.7943
280 K, 100 kPa	81.21	82.78	82.72	82.56	79.36	77.85
280 K, 1000 kPa	81.39	83.75	85	85.38	82.11	80.76
280 K, 5000 kPa	82.14	83.95	85.2	84.52	79.61	76.97
320 K, 100 kPa	80.27	84.53	87.9	89.5	89.35	89.22
320 K, 1000 kPa	79.52	83.75	88.52	89.72	89.1	87.76
320 K, 5000 kPa	81.95	85.5	89.76	91.67	88.6	87.76
360 K, 1000 kPa	81.02	84.72	90.8	92.75	94.34	94.47
360 K, 5000 kPa	80.83	84.53	90.59	92.97	93.59	94.47
360 K, 10000 kPa	82.52	86.28	92.87	95.35	95.09	95.92
360 K, 15000 kPa	82.52	86.67	92.25	95.57	95.58	95.63
